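Assay format: 96-well plates, 48-hour exposure. Here, GI50 denotes the concentration required for 50% inhibition of growth.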 The source made the active and inactive calls. No stated cut-off is given here; in the data, active = GI50 up to about 1.1 µM and inactive = higher.
Experiments:
Assay in all cases: DTP human tumour cell line panel, 48 h
MOLT-4 = test system: MOLT-4
SK-OV-3 = test system: SK-OV-3
SNB-75 = test system: SNB-75
NCI-H522 = test system: NCI-H522
CCRF-CEM = test system: CCRF-CEM
HOP-92 = test system: HOP-92
MCF7 = test system: MCF7
ACHN = test system: ACHN
K562 = test system: K562
HCT-116 = test system: HCT-116
UO-31 = test system: UO-31
OVCAR-8 = test system: OVCAR-8
M14 = test system: M14
A549 = test system: A549
OVCAR-5 = test system: OVCAR-5
CAKI-1 = test system: CAKI-1
MDA-N = test system: MDA-N
SK-MEL-2 = test system: SK-MEL-2
COLO 205 = test system: COLO 205
MDA-MB-231 = test system: MDA-MB-231
IGROV-1 = test system: IGROV-1
EKVX = test system: EKVX
DU-145 = test system: DU-145
MDA-MB-435 = test system: MDA-MB-435
NCI-H23 = test system: NCI-H23
TK-10 = test system: TK-10
Hs-578T = test system: Hs-578T
NCI-H226 = test system: NCI-H226
A498 = test system: A498
SF-268 = test system: SF-268
HL-60 = test system: HL-60
SW-620 = test system: SW-620
U-251 = test system: U-251
UACC-257 = test system: UACC-257
NCI-H460 = test system: NCI-H460
SR = test system: SR
OVCAR-4 = test system: OVCAR-4
KM12 = test system: KM12
HCT-15 = test system: HCT-15
786-0 = test system: 786-0
OVCAR-3 = test system: OVCAR-3
SNB-19 = test system: SNB-19
NCI/ADR-RES = test system: NCI/ADR-RES
SF-295 = test system: SF-295
SK-MEL-5 = test system: SK-MEL-5
PC-3 = test system: PC-3
HT-29 = test system: HT-29
SK-MEL-28 = test system: SK-MEL-28
SN12C = test system: SN12C
T47D = test system: T47D
HOP-62 = test system: HOP-62
RPMI-8226 = test system: RPMI-8226
UACC-62 = test system: UACC-62
RXF 393 = test system: RXF 393
HCC 2998 = test system: HCC 2998
LOX IMVI = test system: LOX IMVI
Malme-3M = test system: Malme-3M
SF-539 = test system: SF-539

O=C(OC[C@H]1C[C@H]2C(=O)OCCC[C@H]2O1)c1ccccc1
GI50 (MOLT-4): > 100 µM (inactive) | GI50 (SK-OV-3): > 100 µM (inactive) | GI50 (SNB-75): > 100 µM (inactive) | GI50 (NCI-H522): > 100 µM (inactive) | GI50 (CCRF-CEM): > 100 µM (inactive) | GI50 (HOP-92): > 100 µM (inactive) | GI50 (MCF7): > 100 µM (inactive) | GI50 (ACHN): > 100 µM (inactive) | GI50 (K562): > 100 µM (inactive) | GI50 (HCT-116): > 100 µM (inactive) | GI50 (UO-31): > 100 µM (inactive) | GI50 (OVCAR-8): > 100 µM (inactive) | GI50 (M14): > 100 µM (inactive) | GI50 (A549): > 100 µM (inactive) | GI50 (OVCAR-5): > 100 µM (inactive) | GI50 (CAKI-1): > 100 µM (inactive) | GI50 (MDA-N): > 100 µM (inactive) | GI50 (SK-MEL-2): > 100 µM (inactive) | GI50 (COLO 205): > 100 µM (inactive) | GI50 (MDA-MB-231): > 100 µM (inactive) | GI50 (IGROV-1): > 100 µM (inactive) | GI50 (EKVX): > 100 µM (inactive) | GI50 (DU-145): > 100 µM (inactive) | GI50 (MDA-MB-435): > 100 µM (inactive) | GI50 (NCI-H23): > 100 µM (inactive) | GI50 (TK-10): > 100 µM (inactive) | GI50 (Hs-578T): > 100 µM (inactive) | GI50 (NCI-H226): > 100 µM (inactive) | GI50 (A498): > 100 µM (inactive) | GI50 (SF-268): > 100 µM (inactive) | GI50 (HL-60): > 100 µM (inactive) | GI50 (SW-620): > 100 µM (inactive) | GI50 (U-251): > 100 µM (inactive) | GI50 (UACC-257): > 100 µM (inactive) | GI50 (NCI-H460): > 100 µM (inactive) | GI50 (SR): > 100 µM (inactive) | GI50 (OVCAR-4): > 100 µM (inactive) | GI50 (KM12): > 100 µM (inactive) | GI50 (HCT-15): > 100 µM | GI50 (786-0): > 100 µM (inactive) | GI50 (OVCAR-3): > 100 µM (inactive) | GI50 (SNB-19): > 100 µM (inactive) | GI50 (NCI/ADR-RES): > 100 µM (inactive) | GI50 (SF-295): > 100 µM (inactive) | GI50 (SK-MEL-5): > 100 µM (inactive) | GI50 (PC-3): > 100 µM (inactive) | GI50 (HT-29): > 100 µM (inactive) | GI50 (SK-MEL-28): > 100 µM (inactive) | GI50 (SN12C): > 100 µM (inactive) | GI50 (T47D): > 100 µM (inactive) | GI50 (HOP-62): > 100 µM (inactive) | GI50 (RPMI-8226): > 100 µM (inactive) | GI50 (UACC-62): > 100 µM (inactive)

CCCCCCCCC#CCCCCCCC(F)C(=O)O (configuration not stated)
GI50 (MOLT-4): > 100 µM (inactive) | GI50 (SK-OV-3): > 100 µM (inactive) | GI50 (SNB-75): > 100 µM (inactive) | GI50 (NCI-H522): > 100 µM (inactive) | GI50 (CCRF-CEM): > 100 µM (inactive) | GI50 (HOP-92): > 100 µM (inactive) | GI50 (RXF 393): > 100 µM (inactive) | GI50 (ACHN): > 100 µM (inactive) | GI50 (K562): 40 µM (inactive) | GI50 (HCT-116): > 100 µM (inactive) | GI50 (UO-31): > 100 µM (inactive) | GI50 (OVCAR-8): > 100 µM (inactive) | GI50 (M14): > 100 µM (inactive) | GI50 (A549): > 100 µM (inactive) | GI50 (OVCAR-5): > 100 µM (inactive) | GI50 (SK-MEL-2): > 100 µM (inactive) | GI50 (COLO 205): > 100 µM (inactive) | GI50 (HCC 2998): > 100 µM (inactive) | GI50 (IGROV-1): > 100 µM (inactive) | GI50 (LOX IMVI): > 100 µM (inactive) | GI50 (EKVX): 43.1 µM (inactive) | GI50 (DU-145): > 100 µM (inactive) | GI50 (MDA-MB-435): > 100 µM (inactive) | GI50 (NCI-H23): > 100 µM (inactive) | GI50 (TK-10): > 100 µM (inactive) | GI50 (Hs-578T): > 100 µM (inactive) | GI50 (NCI-H226): > 100 µM (inactive) | GI50 (A498): > 100 µM (inactive) | GI50 (SF-268): > 100 µM (inactive) | GI50 (HL-60): 25 µM (inactive) | GI50 (SW-620): > 100 µM (inactive) | GI50 (U-251): > 100 µM (inactive) | GI50 (UACC-257): > 100 µM (inactive) | GI50 (NCI-H460): > 100 µM (inactive) | GI50 (SR): > 100 µM (inactive) | GI50 (OVCAR-4): 83.6 µM (inactive) | GI50 (KM12): > 100 µM (inactive) | GI50 (HCT-15): > 100 µM | GI50 (786-0): > 100 µM (inactive) | GI50 (OVCAR-3): > 100 µM (inactive) | GI50 (SNB-19): > 100 µM (inactive) | GI50 (NCI/ADR-RES): > 100 µM (inactive) | GI50 (Malme-3M): > 100 µM (inactive) | GI50 (SF-295): > 100 µM (inactive) | GI50 (SK-MEL-5): > 100 µM (inactive) | GI50 (PC-3): > 100 µM (inactive) | GI50 (SF-539): > 100 µM (inactive) | GI50 (HT-29): > 100 µM (inactive) | GI50 (SK-MEL-28): > 100 µM (inactive) | GI50 (T47D): > 100 µM (inactive) | GI50 (HOP-62): > 100 µM (inactive) | GI50 (RPMI-8226): 29.8 µM (inactive)

COc1cc(C(=O)N2CCN(C(=O)c3cc(OC)c(OC)c(OC)c3)C2=S)cc(OC)c1OC
GI50 (UO-31): 0.234 µM (active) | GI50 (RPMI-8226): 3.66 µM (inactive)

— ChEMBL document CHEMBL1201862, “PubChem BioAssay data set” (2004)
